Reference: patent US20130158024A1, “TRICYCLIC NECROSTATIN COMPOUNDS” (priority 2005, published 2013)
“Also recorded” adds a separate entry of the source. Where a SMILES comes first, the peptide text is derived from it. The star is where a group is joined. Cbz = O=C(OCc1ccccc1)*; CH2F = FC*

Columns and labels:
BALB/c 3T3 cells = assay: CICD of BALB/c 3T3 cells induced by TNFα/zVAD.fmk; format: cell-based, mouse
Jurkat T cells = assay: Necrosis (CICD) of Jurkat T cells induced by Fas ligand, cycloheximide and zVAD, ATP assay; format: cell-based, human; settings: FasL/CHX/zVAD
Experimental: Jurkat cells were treated with 5 ng/ml of FasL without (A) or with cyclohexamide (CHX) (B) to induce apoptosis, or 5 ng/ml FasL, 1 μg/ml of CHX and 100 μM of zVAD.fmk to induce CICD (B). […] Cell viability was determined after 24 hours of incubation with indicated reagents using CellTiter-Glo ATP assay. The values represent viability relative to the control Jurkat cells without the treatment of FasL, which was set as 100% viability.
FIG. 34A is a graph showing the results of treating Jurkat T cells with Fas ligand (5 ng/ml), cyclohexamide (1 μg/ml) and zVAD (100 μM) in the presence of the indicated amounts of anti-necrotic compounds (4) and (5). Viability was determined 36 hours later using an ATP assay. The viability values are relative to the samples lacking Fas ligand, which were used as 100% viability controls. FIG. 34B is a graph as in FIG. 34A, in which the anti-necrotic compounds are (19) and (20).
Compounds were also tested in another necrosis assay utilizing human Jurkat T cells, Fas ligand to induce cell death, and zVAD to inhibit the apoptosis pathway. After 36 hours, cell viability was measure by the commercial CellTiter ATP cell viability assay (Promega).

L929 cells = assay: TNFα-induced CICD of L929 cells, ATP assay; format: cell-based, mouse; settings: no caspase inhibitor
Experimental: Cell viability was determined using ATP-Lite-M ATP assay (Packard). The values represent viability relative to the control lacking TNFα, which was set as 100% viability.
Cell viability in this and subsequent panels was determined by ATP-based viability assay. Numbers represent percentages of the live cells normalized to those in the untreated control wells. Throughout, error bars represent standard deviations. […] Numbers represent viability normalized to that of the corresponding compound-treated cells in the absence of FasL. […] Numbers represent viability normalized to that of the corresponding compound-treated cells in the absence of dimerizer. […] Cells were treated with TNFα (E, F, H), zVAD.fmk (E, F), or CHX (F) for 16 (F) or 24 (E, H) hours. Numbers represent viability normalized to that of the compound-treated cells in the absence of TNFα.

[1] = test system: Primary mouse CD4+ and CD8+ T cells; assay: Activation-induced cell death (AICD) of primary CD4+ and CD8+ T cells; format: cell-based; settings: re-activated CD4+ cells
Experimental: Cell viability was assessed using Sytox Green (Molecular Probes) (CD8) or propidium iodide exclusion (CD4) assays in FIG. 17A or ATP assay in FIG. 17B. Numbers represent the percentages of live cells normalized to the corresponding compound treated controls lacking αCD3.

primary cortical neurons = assay: Oxygen-glucose deprivation (OGD) induced death of primary cortical neurons, MAP2 cytoblot; format: cell-based; settings: OGD 90 minutes, 24 hours recovery; 30 μM
Experimental: Cells were allowed to recover in the presence of the compounds (except for the CNQX/MK801) for 24 hours, and specific neuronal viability was determined using MAP2 cytoblot. Values represent the percentages of live cells normalized to the compound treated cells, which were maintained in glucose-containing, non-deoxygenated media. **—P<0.02. […] Cells were allowed to recover in the presence of the compounds for 24 hours, and specific neuronal viability was determined using MAP2 cytoblot. Values represent the percentages of live cells normalized to the compound treated cells, which were maintained in glucose-containing, non-deoxygenated media. **—P<0.04.

U937 cells = assay: Necrosis of U937 cells induced by TNFα and zVAD.fmk (primary and secondary screen), ATP assay; format: cell-based, human; settings: U937, 72 hours
Experimental: We plated U937 cells in 384-well plates at 5,000-10,000 cells per well in 40-μl phenol red-free RPMI 1640 medium containing 100 μM zVAD.fmk and 40 ng ml^−1 human TNFα using a Multidrop dispenser (Thermo Electron). We added 100 nl of the DiverSetE (5 mg ml^−1 in DMSO, Chembridge) using a Seiko-based custom-built pin transfer robot (Institute of Chemistry and Cell Biology, Harvard Medical School). After 72 hours, we assessed cell viability using a luminescence-based ATP assay (ATPLite-M, PerkinElmer). We also dispensed cells not treated with TNFα in each plate as a positive control. We purchased Nec-1 and other preliminary positive hits from Chembridge for individual retesting.
Using a known paradigm of death receptor mediated caspase-independent cell death in human U937 cells, we established a high-throughput screen in 384 well format for small molecule inhibitors of caspase-independent cell death (CICD). In this system, U937 cells were induced to undergo CICD in the presence of TNFα and zVAD.fmk, and the rate of cell death was determined by an ATP-Lite-M assay, a commercial luminescence-based assay measuring cellular ATP levels (Packard). U937 cells were chosen because these cells can be induced to undergo CICD very efficiently upon TNFα/zVAD treatment in the absence of additional, stress-inducing sensitizing stimuli, such as CHX, making this system perfectly suited for reliable identification of CICD inhibitors. Furthermore, rapid suspension growth kinetics of U937 cells results in the availability of large quantities of cells, which translates into robust signals ideal for high throughput screening. ATP-Lite-M assay was chosen because among all the different assay systems tested, it gives the most consistent and robust signal, which is also critical for high throughput screening. Exposure of U937 cells to TNFα alone led to partial cell death, whereas co-treatment with TNFα and caspase inhibitor zVAD.fmk produced significant increase in the amount of cell death and ATP loss consistent with the published observations. In addition, in the presence of zVAD.fmk, the morphology of cell loss changed from apoptosis with cell shrinkage, nuclear fragmentation, membrane blebbing to necrosis, characterized by cell swelling, increase in cytosolic density, and early loss of plasma membrane integrity. Other cell death assays, such as an MTT assay (mitochondrial metabolism) and Sytox assay (permeability of the plasma membrane), were used as alternative means to validate the screen, and consistently produced results similar to those obtained using ATP-Lite-M assay, which confirmed that the ATP-Lite-M assay can be used to accurately measure the extent of CICD.
In a primary screen, U-937 cells (5×10^5 or 7.5×10^5 cells/ml) were first exposed to zVAD-fmk (100 μM). Thirty minutes later the same cells were exposed to a chemical compound from the library (5 mg/ml, dissolved in 0.1-0.5 μl of DMSO, giving a final DMSO concentration of 0.3% to 1.5%). After an additional thirty minutes, TNFα (40 ng/ml) was added to the cell culture medium. The cells were then incubated at 37 C for 72 hours, and were then assayed for cellular ATP levels. […] Compounds which maintained cellular ATP levels were compounds which blocked necrosis triggered by zVAD-fmk and TNFα.
In a secondary screen, the compounds identified from the first screen, above, to decrease necrosis induced by zVAD-fmk and TNFα were assayed for their potency. Serial dilution of each chemical compound was performed and the compounds were administered to U-937 cells, as per the primary screen. The concentrations of each compound were 70 μM, 23 μM, 8 μM, and 2.5 μM. The level of necrosis occurring in response to zVAD-fmk, TNFα, and the various concentrations of chemical compounds was assayed as described above for the primary screen.

U-937 cells = assay: Necrosis of low density U-937 cells induced by zVAD-fmk and DMSO, ATP levels; format: cell-based, human; settings: U-937 1×10^5 cells/ml, 72 hours
Experimental: Methods for the identification of chemical compounds that decrease cell necrosis induced, for example, by zVAD-fmk/DMSO at a low cell density (e.g., 1×10^5 cells/ml) are achieved essentially as described above, except, the inducer of necrosis is zVAD-fmk/DMSO, rather than zVAD-fmk/TNFα.
Exposure of low density U-937 cells (1×10^5 cells/ml) to zVAD-fmk (100 μM) and DMSO (0.5%) for 72 hours results in cell death by necrosis. The compounds identified to decrease cell necrosis triggered by zVAD-fmk and TNFα, compounds 115807, 115681, 210227, and 215686 from the ChemBridge chemical library, were also evaluated for their ability to decrease cell necrosis induced by zVAD-fmk and DMSO. The cells (1×10^5 cells/ml) were first exposed to zVAD-fmk, and then thirty minutes later to the above-identified small molecules that decrease necrosis. After an additional 30 minutes, the cells were exposed to DMSO. 72 hours after exposure to the compounds, cellular ATP levels were measured, as described above.

[2] = test system: FADD-deficient Jurkat T cells treated with TNF-α; assay: Inhibition of necroptosis (CICD) in FADD-deficient Jurkat T cells treated with TNF-α, ATP-based viability; format: cell-based, human; settings: for antinecroptotic (anti-CICD) activity, in words: FADD-deficient Jurkat cells, TNFα
[3] = test system: FADD deficient Jurkat cells; settings: compound in the absence of TNFα
RIP1 = target: T1, RIP1 (Homo sapiens, UniProt Q13546); assay: In vitro kinase assay: autophosphorylation of immunoprecipitated RIP1; format: biochemical; settings: radioactive ATP, 30 min at 30° C., autoradiography
T1 construct: RIP has been immunoprecipitated (IP) from lysates of WT and RIP-deficient Jurkat cells using agarose-conjugated anti-RIP antibody; endogenous in cells; host or cells: Jurkat (wild type)

CD8+ cells = assay: Activation and proliferation of CD8+ cytotoxic T lymphocytes (CTL) suppressed by zVAD.fmk; format: cell-based, mouse; settings: 100 μM zVAD.fmk, 30 μM compound
Experimental: Numbers of cells were determined using FACS analyses. Cell numbers are normalized to the number of cells in unstimulated control, which was set as 100%. […] Cells were stained with αCD8^+-FITC antibody (Pharmingen) and CD8^+ cell numbers were determined by FACS. Cell numbers are normalized to the number of cells in unstimulated control, which was set as 100%. Percentages of dead cells (line) was determined by co-staining cells with propidium iodide.
Values represent fold increase over unstimulated control.
Cells were stained with αCD8^+-FITC antibody (Pharmingen), and CD8^+ cell numbers were determined by FACS. Cell numbers are normalized to the number of cells in unstimulated control, which was set as 100%. Percentages of dead cells (line) were determined by co-staining cells with propidium iodide.

T1 sequence (Q13546 whole entry): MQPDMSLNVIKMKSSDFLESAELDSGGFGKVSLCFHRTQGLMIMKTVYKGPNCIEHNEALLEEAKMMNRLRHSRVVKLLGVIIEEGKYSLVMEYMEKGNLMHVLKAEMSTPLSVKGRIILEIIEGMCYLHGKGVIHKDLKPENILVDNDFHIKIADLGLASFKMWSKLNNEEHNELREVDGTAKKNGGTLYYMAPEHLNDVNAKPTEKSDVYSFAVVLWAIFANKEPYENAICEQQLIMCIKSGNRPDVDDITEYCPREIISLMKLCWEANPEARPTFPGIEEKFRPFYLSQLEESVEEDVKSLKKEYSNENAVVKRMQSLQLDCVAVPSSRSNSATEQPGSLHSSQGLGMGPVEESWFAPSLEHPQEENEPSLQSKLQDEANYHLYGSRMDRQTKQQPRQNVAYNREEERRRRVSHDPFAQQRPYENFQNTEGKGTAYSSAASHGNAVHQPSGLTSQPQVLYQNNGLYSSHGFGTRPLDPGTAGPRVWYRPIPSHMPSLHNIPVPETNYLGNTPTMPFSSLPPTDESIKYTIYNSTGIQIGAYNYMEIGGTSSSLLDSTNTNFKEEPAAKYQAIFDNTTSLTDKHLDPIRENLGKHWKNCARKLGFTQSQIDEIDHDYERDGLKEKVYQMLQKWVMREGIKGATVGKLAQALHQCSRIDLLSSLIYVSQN

CCCNC(=O)[C@H]1O[C@@H]1C(=O)N[C@H](C(=O)N1CCC[C@H]1C(=O)OC)[C@@H](C)CC [Ca-074-Me, reference compound]
inhibition of CICD in 3T3 cells, in words (BALB/c 3T3 cells): inhibits CICD in Jurkat and 3T3 cells
inhibition of CICD/necrosis of Jurkat cells, in words (Jurkat T cells): inhibits CICD in Jurkat and 3T3 cells
protection of L929 cells from TNFα-induced CICD, in words (L929 cells): neither these compounds nor geldanamycin work in L929 cells

COC(=O)C[C@H](NC(=O)[C@H](C)NC(=O)[C@@H](NC(=O)OCc1ccccc1)C(C)C)C(=O)CF [zVAD.fmk, N-benzyloxycarbonyl-Val-Ala-Asp-(OMe) fluoromethyl ketone, reference compound] (Cbz-Val-Ala-Asp(OMe)-CH2F)
effect on AICD, compound alone, in words [1]: only partially protective
protection from OGD-induced neuronal death, in words (primary cortical neurons): did not detect any protection by zVAD.fmk

COc1ccc(/C=C/C(=O)/C=C/c2ccc(OC)c(OC)c2)cc1OC [Compound 215686]
inhibition of necrosis induced by TNFα/zVAD.fmk, in words (U937 cells): identified to decrease necrosis in response to exposure of the cell to zVAD-fmk and TNFα
decrease of necrosis induced by zVAD-fmk/DMSO, in words (U-937 cells): also decreased necrosis induced by zVAD-fmk/DMSO

Cc1cc(O)c(C(=O)/C=C/c2ccc(O)c([N+](=O)[O-])c2)c(=O)o1 [Compound 115681]
inhibition of necrosis induced by TNFα/zVAD.fmk, in words (U937 cells): identified to decrease necrosis in response to exposure of the cell to zVAD-fmk and TNFα
decrease of necrosis induced by zVAD-fmk/DMSO, in words (U-937 cells): also decreased necrosis induced by zVAD-fmk/DMSO

Cn1cnc(N)c2ncnc1-2 [Compound 3MA, 3-methyladenine, reference compound]
inhibition of CICD in 3T3 cells, in words (BALB/c 3T3 cells): necroptosis proceeded normally in the presence of 3-methyladenine (3MA)
antinecroptotic (anti-CICD) activity, in words [2]: necroptosis proceeded normally in the presence of 3-methyladenine (3MA)

COc1ccc2c(c1)C1=NN(C(C)=O)C(c3ccc(F)cc3)C1CC2 (stereo not shown) [Nec-3]
LD50 [3]: 143 µM
inhibition of necrosis induced by TNFα/zVAD.fmk, in words (U937 cells; listed as 140): identified as an inhibitor of necrosis
inhibition of necrosis induced by TNFα/zVAD.fmk, in words (U937 cells; listed as 210227): identified to decrease necrosis in response to exposure of the cell to zVAD-fmk and TNFα
EC50 ([2]; Homo sapiens, Jurkat, concentration required to rescue 50% of cell death, TNFα for 36 hours, ATP assay, read-out: EC50): 970 nM
decrease of necrosis induced by zVAD-fmk/DMSO, in words (U-937 cells): also decreased necrosis induced by zVAD-fmk/DMSO

O=C1NC(=S)NC1Cc1c[nH]c2ccccc12 (stereo not shown) [Nec-1i]
inhibition of RIP1 autophosphorylation, in words (RIP1): showed significantly reduced activity in inhibiting RIP1 autophosphorylation
antinecroptotic (anti-CICD) activity, in words [2]: does not inhibit CICD in vitro; also recorded: completely abolished antinecroptotic activity
restoration of CTL activation/proliferation suppressed by zVAD.fmk, in words (CD8+ cells): does not affect T cell proliferation; also recorded: failed to restore T cell proliferation
protection from OGD-induced neuronal death, in words (primary cortical neurons): failed to rescue neuronal cell death

CN1C(=O)C(Cc2c[nH]c3ccccc23)NC1=S (stereo not shown) [Compound 115807]
inhibition of necrosis induced by TNFα/zVAD.fmk, in words (U937 cells): identified to decrease necrosis in response to exposure of the cell to zVAD-fmk and TNFα
decrease of necrosis induced by zVAD-fmk/DMSO, in words (U-937 cells): also decreased necrosis induced by zVAD-fmk/DMSO
